Assay results: patent publication US8822517B2, “Arylosulfonamides for the treatment of CNS diseases” (Adamed SP. Z O.O., priority 2010, dated 2014)

Assays:
sigma σ receptor = experiment: Binding assay σ (non-selective), [3H]DTG, rat cerebral cortex; conditions: percent inhibition of control specific binding; compounds tested at 1×10^−6 M
How it was run: (§1)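 Radioligand displacement with compounds at 1×10^−6 M, detected by scintillation counting. Specific binding taken as total minus non-specific binding measured with excess unlabelled ligand.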

dopaminergic D3 receptor = dopaminergic D3 receptor (Homo sapiens, UniProt P35462); experiment: Binding assay D3 (h), [3H]methyl-spiperone, CHO cells; design: expressed in transfected cells; host or cells: CHO cells; conditions: read-out: D3 [%]
dopaminergic D3 receptor, sequence (P35462 whole entry): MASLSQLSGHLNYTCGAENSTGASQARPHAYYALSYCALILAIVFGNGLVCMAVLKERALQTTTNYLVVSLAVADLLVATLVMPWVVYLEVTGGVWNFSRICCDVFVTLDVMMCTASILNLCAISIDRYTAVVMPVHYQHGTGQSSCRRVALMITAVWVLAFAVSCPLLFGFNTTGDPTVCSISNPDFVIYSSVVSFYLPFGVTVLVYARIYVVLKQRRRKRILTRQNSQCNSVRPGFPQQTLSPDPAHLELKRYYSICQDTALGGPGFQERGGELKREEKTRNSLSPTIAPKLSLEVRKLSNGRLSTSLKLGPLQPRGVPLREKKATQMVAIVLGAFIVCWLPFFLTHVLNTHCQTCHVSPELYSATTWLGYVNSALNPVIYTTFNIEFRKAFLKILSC
How it was run: as §1

[1] = molecular target: T1, serotonine transporter (SERT) receptor (Homo sapiens, UniProt P31645); experiment: Binding assay SERT (h), [3H]imipramine, CHO cells; conditions: read-out: SERT [%]
T1 construct: expressed in transfected cells; host or cells: CHO cells
T1 sequence (P31645 whole entry): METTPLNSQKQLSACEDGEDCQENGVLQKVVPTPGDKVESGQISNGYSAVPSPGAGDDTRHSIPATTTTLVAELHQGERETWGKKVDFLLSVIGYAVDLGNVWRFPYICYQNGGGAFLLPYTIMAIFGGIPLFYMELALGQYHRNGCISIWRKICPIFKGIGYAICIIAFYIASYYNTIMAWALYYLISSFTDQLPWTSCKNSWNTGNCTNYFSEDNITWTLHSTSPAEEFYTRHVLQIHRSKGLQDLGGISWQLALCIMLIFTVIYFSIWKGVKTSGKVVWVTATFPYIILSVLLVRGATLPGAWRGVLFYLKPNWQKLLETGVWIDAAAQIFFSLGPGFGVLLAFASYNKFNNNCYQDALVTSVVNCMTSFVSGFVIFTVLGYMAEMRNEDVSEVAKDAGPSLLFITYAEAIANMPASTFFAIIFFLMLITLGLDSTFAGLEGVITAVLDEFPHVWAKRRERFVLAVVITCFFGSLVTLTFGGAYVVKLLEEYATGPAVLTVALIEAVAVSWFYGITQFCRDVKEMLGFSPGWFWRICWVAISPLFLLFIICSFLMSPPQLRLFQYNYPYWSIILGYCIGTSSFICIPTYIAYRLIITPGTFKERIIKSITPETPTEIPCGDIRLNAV
How it was run: as §1

[2] = molecular target: T2, serotoninergic 5-HT6 receptor (Homo sapiens, UniProt P50406); experiment: Binding assay 5-HT6 (h), [3H]LSD, CHO cells; design: expressed in transfected cells; host or cells: CHO cells; conditions: read-out: 5-HT6
T2 sequence (P50406 whole entry): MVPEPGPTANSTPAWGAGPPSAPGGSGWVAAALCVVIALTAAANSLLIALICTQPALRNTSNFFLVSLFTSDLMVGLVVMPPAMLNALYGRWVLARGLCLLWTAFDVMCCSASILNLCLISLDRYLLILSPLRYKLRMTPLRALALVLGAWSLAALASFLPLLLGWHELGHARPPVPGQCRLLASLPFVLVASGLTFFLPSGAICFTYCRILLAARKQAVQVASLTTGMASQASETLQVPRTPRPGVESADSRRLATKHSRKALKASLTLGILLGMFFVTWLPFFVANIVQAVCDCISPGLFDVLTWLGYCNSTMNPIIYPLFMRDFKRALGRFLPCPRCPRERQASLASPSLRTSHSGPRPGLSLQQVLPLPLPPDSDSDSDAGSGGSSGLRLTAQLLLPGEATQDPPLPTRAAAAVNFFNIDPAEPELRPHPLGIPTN
How it was run: as §1

[3] = molecular target: histaminergic H1 receptor (Homo sapiens, UniProt P35367); experiment: Binding assay H1 (h), [3H]pyrilamine, HEK-293 cells; design: expressed in transfected cells; host or cells: HEK-293 cells; conditions: read-out: H1 [%]
histaminergic H1 receptor, sequence (P35367 whole entry): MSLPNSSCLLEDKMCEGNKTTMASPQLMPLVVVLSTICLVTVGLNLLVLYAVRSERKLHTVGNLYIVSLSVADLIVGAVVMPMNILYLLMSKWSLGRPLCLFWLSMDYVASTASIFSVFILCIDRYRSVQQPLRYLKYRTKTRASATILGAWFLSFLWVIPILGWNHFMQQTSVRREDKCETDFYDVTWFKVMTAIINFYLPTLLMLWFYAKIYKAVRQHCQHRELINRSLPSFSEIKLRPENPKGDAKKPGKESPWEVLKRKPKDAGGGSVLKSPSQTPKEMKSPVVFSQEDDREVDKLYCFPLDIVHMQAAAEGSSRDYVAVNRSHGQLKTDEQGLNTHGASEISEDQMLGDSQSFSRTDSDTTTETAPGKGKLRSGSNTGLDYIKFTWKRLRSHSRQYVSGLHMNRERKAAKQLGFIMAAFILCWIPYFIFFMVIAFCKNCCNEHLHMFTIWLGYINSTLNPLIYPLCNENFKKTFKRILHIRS
How it was run: as §1

muscarinic M3 receptor = molecular target: T3, muscarinic M3 receptor (Homo sapiens, UniProt P20309); experiment: Binding assay M3 (h), [3H]4-DAMP, CHO cells; conditions: read-out: M3 [%]
T3 construct: expressed in transfected cells; host or cells: CHO cells
T3 sequence (P20309 whole entry): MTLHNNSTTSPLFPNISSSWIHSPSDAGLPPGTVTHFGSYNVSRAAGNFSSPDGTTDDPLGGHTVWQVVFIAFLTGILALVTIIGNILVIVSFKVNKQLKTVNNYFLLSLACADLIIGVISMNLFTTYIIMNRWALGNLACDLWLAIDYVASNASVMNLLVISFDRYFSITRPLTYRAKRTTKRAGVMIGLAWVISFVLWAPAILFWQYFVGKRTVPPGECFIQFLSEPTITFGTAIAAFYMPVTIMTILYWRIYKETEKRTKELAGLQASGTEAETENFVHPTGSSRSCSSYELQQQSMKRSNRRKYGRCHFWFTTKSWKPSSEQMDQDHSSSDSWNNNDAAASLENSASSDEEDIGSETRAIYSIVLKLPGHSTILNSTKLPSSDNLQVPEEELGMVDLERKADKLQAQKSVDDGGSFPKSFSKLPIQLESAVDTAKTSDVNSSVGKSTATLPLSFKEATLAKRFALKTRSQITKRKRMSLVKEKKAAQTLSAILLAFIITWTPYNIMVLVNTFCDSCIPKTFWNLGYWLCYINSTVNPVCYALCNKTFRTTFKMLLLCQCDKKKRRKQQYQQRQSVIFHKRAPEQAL
How it was run: as §1

[4] = molecular target: T4, serotoninergic 5-HT7 receptor (Homo sapiens, UniProt P34969); experiment: Cellular functional assay, serotoninergic 5-HT7 receptor (agonism/antagonism); type: cell-based; conditions: for activation at 1 µM: agonist effect, percent of control specific agonist response, compounds tested at 1×10^−6M, read-out: 5-HT7-ag [%]; for inhibition at 1 µM: read-out: 5-HT7-antag. [%]
T4 sequence (P34969 whole entry): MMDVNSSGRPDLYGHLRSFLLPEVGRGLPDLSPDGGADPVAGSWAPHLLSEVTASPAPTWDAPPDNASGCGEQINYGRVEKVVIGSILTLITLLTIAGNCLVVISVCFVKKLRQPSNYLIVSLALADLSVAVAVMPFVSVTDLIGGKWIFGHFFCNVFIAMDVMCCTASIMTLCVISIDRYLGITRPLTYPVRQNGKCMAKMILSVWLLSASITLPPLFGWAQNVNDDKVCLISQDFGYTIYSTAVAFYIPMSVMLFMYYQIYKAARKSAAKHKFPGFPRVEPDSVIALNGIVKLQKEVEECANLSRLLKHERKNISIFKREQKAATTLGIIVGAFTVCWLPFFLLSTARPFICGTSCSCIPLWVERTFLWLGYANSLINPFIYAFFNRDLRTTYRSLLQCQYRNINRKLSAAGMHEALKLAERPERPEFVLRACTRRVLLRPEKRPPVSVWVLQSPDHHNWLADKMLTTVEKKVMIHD
Experimental: (§2) The compounds were tested at the concentration of 1×10^−6M.
(§3) In the Tables ag refers to agonism, and antag to antagonism).

[5] = molecular target: T5, serotoninergic receptor 5-HT2C (Homo sapiens, UniProt P28335); experiment: Binding assay 5-HT2C (h), [3H]mesulergine, HEK-293 cells; conditions: read-out: 5-HT2C [%]
T5 construct: expressed in transfected cells; host or cells: HEK-293 cells
T5 sequence (P28335 33-458): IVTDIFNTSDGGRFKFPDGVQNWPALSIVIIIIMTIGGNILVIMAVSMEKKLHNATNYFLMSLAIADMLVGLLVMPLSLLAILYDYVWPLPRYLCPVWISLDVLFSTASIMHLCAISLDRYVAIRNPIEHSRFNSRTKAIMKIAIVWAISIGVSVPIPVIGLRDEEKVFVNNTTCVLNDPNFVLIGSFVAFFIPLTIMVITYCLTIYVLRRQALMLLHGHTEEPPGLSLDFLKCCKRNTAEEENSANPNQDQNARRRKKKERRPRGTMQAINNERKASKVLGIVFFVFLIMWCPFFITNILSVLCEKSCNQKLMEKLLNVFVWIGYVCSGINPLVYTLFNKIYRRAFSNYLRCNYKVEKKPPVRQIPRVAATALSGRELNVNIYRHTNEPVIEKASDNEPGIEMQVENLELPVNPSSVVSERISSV
How it was run: as §1

dopaminergic D2 receptor = dopaminergic D2 receptor (Homo sapiens, UniProt P14416); experiment: Binding assay D2S (h), [3H]methyl-spiperone, HEK-293 cells; design: expressed in transfected cells; host or cells: HEK-293 cells; conditions: read-out: D2 [%]
dopaminergic D2 receptor, sequence (P14416 1-414 isoform P14416-2): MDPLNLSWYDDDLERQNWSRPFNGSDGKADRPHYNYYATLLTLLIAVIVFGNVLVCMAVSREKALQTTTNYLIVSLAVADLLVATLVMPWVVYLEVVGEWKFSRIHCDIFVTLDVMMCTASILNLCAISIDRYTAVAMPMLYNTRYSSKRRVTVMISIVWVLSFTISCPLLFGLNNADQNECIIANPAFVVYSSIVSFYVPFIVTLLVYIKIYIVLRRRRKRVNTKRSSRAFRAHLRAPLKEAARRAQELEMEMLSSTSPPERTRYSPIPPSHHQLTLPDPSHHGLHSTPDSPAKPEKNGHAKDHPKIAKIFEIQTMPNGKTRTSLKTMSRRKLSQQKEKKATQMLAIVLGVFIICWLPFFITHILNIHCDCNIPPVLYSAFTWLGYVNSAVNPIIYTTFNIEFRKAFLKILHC
How it was run: as §1

adrenergic α2C receptor = molecular target: T6, adrenergic α2C receptor (Homo sapiens, UniProt P18825); experiment: Binding assay α2C (h), [3H]RX 821002, CHO cells; design: expressed in transfected cells; host or cells: CHO cells; conditions: read-out: α2C [%]
T6 sequence (P18825 1-462): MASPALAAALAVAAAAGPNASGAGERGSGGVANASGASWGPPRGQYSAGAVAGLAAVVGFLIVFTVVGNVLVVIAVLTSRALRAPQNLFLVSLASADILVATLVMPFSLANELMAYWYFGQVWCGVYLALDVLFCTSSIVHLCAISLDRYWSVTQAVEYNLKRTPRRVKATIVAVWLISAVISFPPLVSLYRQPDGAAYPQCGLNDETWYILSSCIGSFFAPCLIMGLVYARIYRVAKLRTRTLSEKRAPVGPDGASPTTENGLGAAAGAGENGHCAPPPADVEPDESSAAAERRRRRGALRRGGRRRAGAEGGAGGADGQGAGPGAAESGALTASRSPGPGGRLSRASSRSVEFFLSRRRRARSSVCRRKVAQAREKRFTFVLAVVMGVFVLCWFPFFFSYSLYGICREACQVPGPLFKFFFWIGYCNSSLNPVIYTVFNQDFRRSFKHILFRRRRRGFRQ
How it was run: as §1

[6] = molecular target: T2, serotoninergic 5-HT6 receptor; experiment: Cellular functional assay, serotoninergic 5-HT6 receptor (agonism/antagonism); type: cell-based; conditions: for activation at 1 µM: agonist effect, percent of control specific agonist response, compounds tested at 1×10^−6M, read-out: 5-HT6-ag [%]; for inhibition at 1 µM: read-out: 5-HT6-antag. [%]
Experimental: as §2, §3

adrenergic α1 receptor = experiment: Binding assay α1 (non-selective), [3H]prazosin, rat cerebral cortex; conditions: percent inhibition of control specific binding; compounds tested at 1×10^−6 M
How it was run: as §1

[7] = molecular target: T7, serotoninergic 5-HT1A receptor (Homo sapiens, UniProt P08908); experiment: Binding assay 5-HT1A (h), [3H]8-OH-DPAT, HEK-293 cells; design: expressed in transfected cells; host or cells: HEK-293 cells; conditions: read-out: 5-HT1A
T7 sequence (P08908 1-422): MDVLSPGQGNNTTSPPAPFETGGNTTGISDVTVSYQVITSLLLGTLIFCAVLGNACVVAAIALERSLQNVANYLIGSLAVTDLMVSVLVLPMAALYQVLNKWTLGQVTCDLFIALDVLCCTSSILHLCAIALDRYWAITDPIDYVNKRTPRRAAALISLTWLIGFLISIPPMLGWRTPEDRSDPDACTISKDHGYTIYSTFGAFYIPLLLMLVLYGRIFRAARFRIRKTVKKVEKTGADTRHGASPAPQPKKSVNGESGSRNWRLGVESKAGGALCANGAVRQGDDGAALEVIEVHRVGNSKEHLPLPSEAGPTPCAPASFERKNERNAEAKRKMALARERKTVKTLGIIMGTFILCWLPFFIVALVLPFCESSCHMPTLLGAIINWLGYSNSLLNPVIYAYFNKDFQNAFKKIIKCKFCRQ
How it was run: as §1

[8] = molecular target: T4, serotoninergic 5-HT7 receptor; experiment: Binding assay 5-HT7 (h), [3H]LSD, CHO cells; design: expressed in transfected cells; host or cells: CHO cells; conditions: read-out: 5-HT7
How it was run: as §1

[9] = molecular target: serotoninergic 5-HT2A receptor (Homo sapiens, UniProt P28223); experiment: Binding assay 5-HT2A (h), [3H]ketanserin, HEK-293 cells; design: expressed in transfected cells; host or cells: HEK-293 cells; conditions: read-out: 5-HT2A
serotoninergic 5-HT2A receptor, sequence (P28223 whole entry): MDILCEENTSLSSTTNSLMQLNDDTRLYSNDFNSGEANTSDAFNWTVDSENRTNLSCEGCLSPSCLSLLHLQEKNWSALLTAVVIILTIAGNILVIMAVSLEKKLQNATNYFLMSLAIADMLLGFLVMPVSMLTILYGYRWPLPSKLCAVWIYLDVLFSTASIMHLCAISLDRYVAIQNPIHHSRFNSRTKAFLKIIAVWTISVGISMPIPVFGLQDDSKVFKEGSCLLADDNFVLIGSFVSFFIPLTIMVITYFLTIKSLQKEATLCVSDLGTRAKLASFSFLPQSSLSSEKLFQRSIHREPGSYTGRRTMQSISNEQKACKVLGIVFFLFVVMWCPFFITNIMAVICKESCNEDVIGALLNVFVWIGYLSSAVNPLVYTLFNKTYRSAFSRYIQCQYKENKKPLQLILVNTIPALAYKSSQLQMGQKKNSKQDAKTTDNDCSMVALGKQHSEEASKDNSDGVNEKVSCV
How it was run: as §1

| Structure (SMILES) | σ [%] (sigma σ receptor) | inhibition at 1 µM (dopaminergic D3 receptor) | inhibition at 1 µM [1] | inhibition at 1 µM [2] | inhibition at 1 µM [3] | inhibition at 1 µM (muscarinic M3 receptor) | activation at 1 µM [4] | inhibition at 1 µM [4] | inhibition at 1 µM [5] | inhibition at 1 µM (dopaminergic D2 receptor) | inhibition at 1 µM (adrenergic α2C receptor) | activation at 1 µM [6] | inhibition at 1 µM [6] | α1 [%] (adrenergic α1 receptor) | inhibition at 1 µM [7] | inhibition at 1 µM [8] | inhibition at 1 µM [9] |
| --- | --- | --- | --- | --- | --- | --- | --- | --- | --- | --- | --- | --- | --- | --- | --- | --- | --- |
| O=c1[nH]c2ccc(S(=O)(=O)NCCCCN3CCN(c4nsc5ccccc45)CC3)cc2o1 [Compound 4, N-(4-(4-(1,2-Benzothiazol-3-yl)piperazin-1-yl)butyl)-2-oxo-3H-1,3-benzoxazole-6-sulphonamide] | 1% | 98% | 26% | 87% | 100% | 3% | -1% | 81% | 91% | 96% | 96% | -1% | 37% | 96% | 99% | 97% | 99% |
| O=S(=O)(NCCN1CCN(c2nsc3ccccc23)CC1)c1cccc2ccccc12 [Compound 9, N-(2-(4-(1,2-Benzothiazol-3-yl)piperazin-1-yl)ethyl)naphthalene-1-sulphonamide] | 23% | 90% | 29% | 22% | 77% | -2% | 0% | 48% | 24% | 91% | 98% | 0% | -4% | 74% | 98% | 98% | 99% |
| O=S(=O)(NCCN1CCN(c2nsc3ccccc23)CC1)c1ccc2ccccc2c1 [Compound 10, N-(2-(4-(1,2-Benzothiazol-3-yl)piperazin-1-yl)ethyl)naphthalene-2-sulphonamide] | 31% | 97% | 50% | 37% | 81% | -2% | 0% | 85% | 54% | 94% | 98% | 1% | -16% | 79% | 97% | 99% | 99% |
| Cc1cccc(S(=O)(=O)NCCN2CCN(c3nsc4ccccc34)CC2)c1 [Compound 11, N-(2-(4-(1,2-Benzothiazol-3-yl)piperazin-1-yl)ethyl)-3-methylbenzenesulphonamide] | 21% | 91% | 1% | 54% | 74% | -6% | 0% | 85% | 40% | 89% | 94% | -1% | -10% | 85% | 99% | 99% | 99% |
| O=c1[nH]c2ccc(S(=O)(=O)NCCN3CCN(c4nsc5ccccc45)CC3)cc2o1 [Compound 12, N-(2-(4-(1,2-Benzothiazol-3-yl)piperazin-1-yl)ethyl)-2-oxo-3H-1,3-benzoxazole-6-sulphonamide] | 4% | 92% | 7% | 80% | 79% | -9% | -1% | 68% | 17% | 93% | 83% | -1% | -2% | 67% | 99% | 89% | 99% |
| Cc1cccc(S(=O)(=O)NCCCCN2CCC(c3noc4cc(F)ccc34)CC2)c1 [Compound 19, N-[4-[4-(6-Fluoro-1,2-benzoxazol-3-yl)piperidin-1-yl]butyl]-3-methylbenzenesulphonamide] | 92% | 90% | 8% | 69% | 79% | 9% | -1% | 99% | 56% | 97% | 100% | -1% | 23% | 99% | 64% | 100% | 100% |
| O=S(=O)(NCCCN1CCC(c2noc3cc(F)ccc23)CC1)c1cccc2ccccc12 [Compound 20, N-[3-[4-(6-Fluoro-1,2-benzoxazol-3-yl)piperidin-1-yl]propyl]naphthalene-1-sulphonamide] | 81% | 96% | 85% | 85% | 78% | -9% | -1% | 101% | 75% | 98% | 99% | -2% | 23% | 99% | 71% | 101% | 100% |
